Results taken from patent US20260138969A1 (Korea Research Institute of Chemical Technology, priority 2023, published 2026).
Marks after values point to notes of the source that are not given here.

Columns and labels:
[1] = system: α-Syn transgenic Parkinson's disease mouse model; assay: α-Syn transgenic Parkinson's disease mouse model: microglial reduction (Iba-1); type: in vivo; conditions: 9 months of age; Memantine 10 mg/kg (G3), G4 2 mg/kg, G5 10 mg/kg, G7 2 mg/kg PO QD
Experimental: The test drug was administered once daily (QD) via oral administration (PO) with a solution of 5 ml/kg for 5 months from 4 months to 9 months of age. Motor behavior tests (beam test) and neurological scores (modified Irwin test) were performed at 4 months (before administration), 7 months, and 9 months. After the final behavioral test, tissue samples were taken. Weight was measured on the same day once a week from 4 months of age until the end of the study.
At 9 months of age, the measurement period ended, the mice were anesthetized, and then the experiment was terminated by cardiac puncture according to IACUC guidelines. Mice were perfused transcardially with 0.9% saline for tissue staining, followed by 4% paraformaldehyde until the mice were fixed. The brains were isolated and immobilized by soaking in 4% paraformaldehyde at 4° C. for 24 hours, followed by 30% sucrose added to PBS containing 0.02% sodium azide and stored at 4° C. for 3 days. Brain samples embedded in OCT compounds were sectioned to a thickness of 20 μm using Leica CM1950 (Leica Microsystems, Germany). The sections were stored at 4° C. in a preservation solution until they were stained by antibodies. […]
To assess microgliosis of the cortex, Iba-1-stained brain tissue was imaged in experimental example 10.5 using an immunofluorescence microscope (Olympus, BZ21) in Olympus. Each marker was manually counted to quantify Iba1.

[2] = system: BV2 cells; assay: Anti-inflammatory efficacy: LPS-induced TNF-α secretion (ELISA); type: cell-based; conditions: 0.1, 0.3, 1 μM pretreatment 1 hour, LPS 100 μg/ml 24 hours; FIG. 2
Experimental: BV2 cells (2×10^4 cells per well) were incubated for 24 hours in a 96-well culture plate. Subsequently, the Example compounds were added in 0.1 μM, 0.3 μM, and 1 μM, respectively, for 1 hour, followed by the addition of LPS 100 μg/ml and incubated for 24 hours. After incubation, conditioned medium (CM) was harvested and centrifuged at 2000 rpm. After separating the supernatant of the solution after centrifugation, the TNF-α secreted from the cell culture medium was measured using the corresponding ELISA kit (LABISKOMA, Seoul, Korea).

[3] = TG synthesis inhibition in FFA-treated HepG2 cells; type: cell-based, human; conditions: human, HepG2 cells, read-out: Cell Viability (% of HepG2 control)
[4] = system: HepG2 cells; assay: TG synthesis inhibition in FFA-treated HepG2 cells; type: cell-based, human
[5] = system: SOD1 G93A transgenic ALS mouse model; assay: SOD1 G93A transgenic ALS mouse model: neurological score; type: in vivo; conditions: 30 mg/kg PO QD; from the 19th week of age onwards; vs G2
Experimental: (§1) The test drug was administered once daily (QD) via oral administration (PO) in a solution of 5 mL/kg from 8 weeks of age until death. Body weight was measured weekly, and disease score was measured daily from 8 weeks until the death of the animal. Motor behavior tests (grip strength) and neurological score tests (modified Irwin test) were performed at 9, 11, 13, 15, 17, 19, and 21 weeks, respectively. The survival of the mice was monitored daily.

[6] = system: SOD1 G93A transgenic ALS mouse model; assay: SOD1 G93A transgenic ALS mouse model: grip strength; type: in vivo; conditions: 30 mg/kg PO QD from 8 weeks of age; vs G2
Experimental: as §1
Grip strength measurements were performed on mice aged 9, 11, 13, 15, 17, 19, and 21 weeks of age. The mouse was placed on a grip strength measurement device (San Diego Instruments, San Diego, USA) in such a way that the mouse grabbed the handle of a small mesh with its front paws. I put the mouse down on the platform and then slowly pulled the handle […] until the mouse released the handle. The device automatically measured the grip strength of the mouse in grams. Five scores per mouse were recorded consecutively in a one-day session.

[7] = system: SOD1 G93A transgenic ALS mouse model; assay: SOD1 G93A transgenic ALS mouse model: survival; type: in vivo; conditions: 30 mg/kg PO QD from 8 weeks of age until death; vs G2
Experimental: as §1
The survival of the mice was monitored daily. The survival age of mice was recorded and labeled as Kaplan Meier survival plots.

[8] = Distribution in the mouse brain (plasma and brain AUC); type: in vivo
Experimental: The blood-brain barrier permeability in ICR mice was confirmed by oral administration of 10 mg/kg of test material. Male […] mice were fasted for 15 h prior to administration. The test material was administered at a dose of 10 mg/kg and a volume of 5 mL/kg, and the solvent composition was N-Methyl-2-pyrrolidone (NMP), Polyethylene glycol 400 (PEG 400), and distilled water (D.W) at a volume ratio of 10:40:50(%), respectively. After administration, blood and brain tissue samples were taken by sacrificing mice with carbon dioxide inhalation at each time point corresponding to 1, 4, and 8 hours. Whole blood was collected from the abdominal vena cava, and brain samples were collected after systemic perfusion with saline to remove as much blood as possible.
The distribution ratio in mouse plasma and brain was calculated by calculating the AUC after concentration quantification in each tissue.

[9] = oral 10 mg/kg, samples at 1, 4, 8 hours

| Compound | number of IBA-1 positive cells in the cerebral cortex [1] | TNF-α secretion induced by LPS [2] | viability at 48 h, 0.3 μM ([3]; FFA 1 mM + 0.3 μM) | viability at 48 h, 1 μM ([3]; FFA 1 mM + 1 μM) | TG Level (% of HepG2 control) ([4]; FFA 1 mM + 0.3 μM) | TG Level (% of HepG2 control) ([4]; FFA 1 mM + 1 μM) | neurological scores [5] | grip strength [6] | survival rate [7] | Kp ([8]; male, brain/plasma, po, 10 mg/kg) | Aukinf brain [8, 9] | Aukinf plasma [8, 9] |
| --- | --- | --- | --- | --- | --- | --- | --- | --- | --- | --- | --- | --- |
| Cc1cc(F)c(C(=O)Nc2cccc(-n3nnc4c3CCC4)n2)cc1-n1cnc(C2CC2)c1 [Example 2, 5-(4-cyclopropyl-1H-imidazole-1-yl)-N-(6-(5,6-dihydrocyclopenta[d][1,2,3]triazole-1 (4H)-yl)pyridine-2-yl)-2-fluoro-4-methylbenzamide] | significantly reduced | – | – | – | – | – | – | – | – | – | – | – |
| Cc1cc(F)c(C(=O)Nc2cccc(-n3nnc4c3CCCC4)n2)cc1-n1cnc(C2CC2)c1 [Example 3, 5-(4-cyclopropyl-1H-imidazole-1-yl)-2-fluoro-4-methyl-N-(6-(4,5,6,7-tetrahydro-1H-benzo[d][1,2,3]triazole-1-yl)pyridine-2-yl)benzamide] | – | reduced TNF-α secretion at all concentrations compared to Selonsertib | 99.1% | 93.1% | 117.38 * % of HepG2 control | 106.59 * % of HepG2 control | significant decrease in neurological scores compared to G2 | tended to increase grip strength compared to group G2, and the grip strength increased significantly from 19 weeks | tendency to improve survival rate, although it was not significant compared to group G2 | 0.021 | 6.61 ± 1.75 ug*h · g. | 320 ± 74.8 µg·mL·h |
